The values below come from publication PMC5218480 (PLoS ONE, 2017).

The test system of the assay is MV-4-11 cells. The assay is described as follows: Gene expression microarray analysis (Affymetrix PrimeView) and GSEA. The format is cell-based, human. Set-up: RFU PODN (11730768_x_at) / Fold change /veh PODN (11730768_x_at) / RFU LINC00158 (11744669_a_at) / Fold change /veh LINC00158 (11744669_a_at) / RFU DUSP10 (11751237_a_at) / Fold change /veh DUSP10 (11751237_a_at) / RFU ID3 (11757404_x_at) / Fold change /veh ID3 (11757404_x_at) / RFU PLEKHG5 (11737974_s_at) / Fold change /veh PLEKHG5 (11737974_s_at) / RFU LRRC4B (11730491_at) / Fold change /veh LRRC4B (11730491_at) / RFU GIMAP4 (11747438_a_at) / Fold change /veh GIMAP4 (11747438_a_at) / RFU KRT8 (11758183_x_at) / Fold change /veh KRT8 (11758183_x_at) / RFU CNN1 (11734310_a_at) / Fold change /veh CNN1 (11734310_a_at) / RFU VPS37D (11726825_at) / Fold change /veh VPS37D (11726825_at) / RFU C10orf10 (11716522_x_at) / Fold change /veh C10orf10 (11716522_x_at) / RFU KIR2DL2 /// KIR2DL4 /// KIR2DL5A /// KIR2DL5B /// KIR2DS1 /// KIR2DS2 /// KIR2DS3 /// KIR2DS4 /// KIR3DL3 /// KIR3DL3 /// KIR3DS1 (11738374_at) / Fold change /veh KIR2DL2 /// KIR2DL4 /// KIR2DL5A /// KIR2DL5B /// KIR2DS1 /// KIR2DS2 /// KIR2DS3 /// KIR2DS4 /// KIR3DL3 /// KIR3DL3 /// KIR3DS1 (11738374_at) / RFU C1QL1 (11718748_at) / Fold change /veh C1QL1 (11718748_at) / RFU TMPRSS4 (11747572_a_at) / Fold change /veh TMPRSS4 (11747572_a_at) / RFU HAMP (11756126_x_at) / Fold change /veh HAMP (11756126_x_at) / RFU RNFT2 (11725882_a_at) / Fold change /veh RNFT2 (11725882_a_at) / RFU NR4A2 (11747474_a_at) / Fold change /veh NR4A2 (11747474_a_at) / RFU ABCC12 (11746883_a_at) / Fold change /veh ABCC12 (11746883_a_at) / RFU TMEM136 (11760407_x_at) / Fold change /veh TMEM136 (11760407_x_at) / RFU CLDN22 /// WWC2 (11732394_at) / Fold change /veh CLDN22 /// WWC2 (11732394_at) / RFU HLA-DPB1 (11760878_x_at) / Fold change /veh HLA-DPB1 (11760878_x_at) / RFU SPINT1 (11716480_a_at) / Fold change /veh SPINT1 (11716480_a_at) / RFU GAP43 (11754022_s_at) / Fold change /veh GAP43 (11754022_s_at) / RFU A4GNT (11735810_at) / Fold change /veh A4GNT (11735810_at) / RFU PRB3 (11715151_x_at) / Fold change /veh PRB3 (11715151_x_at) / RFU TUBB4B (11761932_at) / Fold change /veh TUBB4B (11761932_at) / RFU CAPN14 (11732068_a_at) / Fold change /veh CAPN14 (11732068_a_at) / RFU TMCC2 (11721928_a_at) / Fold change /veh TMCC2 (11721928_a_at) / RFU IRGQ (11745062_a_at) / Fold change /veh IRGQ (11745062_a_at) / RFU FAM174B (11720279_a_at) / Fold change /veh FAM174B (11720279_a_at) / RFU TMPRSS4 (11748680_a_at) / Fold change /veh TMPRSS4 (11748680_a_at) / RFU FAM212B (11763350_a_at) / Fold change /veh FAM212B (11763350_a_at) / RFU PLEKHG5 (11743358_a_at) / Fold change /veh PLEKHG5 (11743358_a_at) / RFU ZSCAN30 (11745921_a_at) / Fold change /veh ZSCAN30 (11745921_a_at) / RFU CMKLR1 (11741424_a_at) / Fold change /veh CMKLR1 (11741424_a_at) / RFU LOC101060620 /// MAPK8IP1 (11723275_at) / Fold change /veh LOC101060620 /// MAPK8IP1 (11723275_at) / RFU SPTSSB (11747773_x_at) / Fold change /veh SPTSSB (11747773_x_at) / RFU PRSS12 (11739890_at) / Fold change /veh PRSS12 (11739890_at) / RFU BIN1 (11741810_x_at) / Fold change /veh BIN1 (11741810_x_at) / RFU WNT11 (11732464_a_at) / Fold change /veh WNT11 (11732464_a_at) / RFU C10orf10 (11716521_a_at) / Fold change /veh C10orf10 (11716521_a_at) / RFU C5orf56 (11738089_at) / Fold change /veh C5orf56 (11738089_at) / RFU CYB561 (11721691_x_at) / Fold change /veh CYB561 (11721691_x_at) / RFU ANKRD19P (11752326_a_at) / Fold change /veh ANKRD19P (11752326_a_at) / RFU OR2T12 /// OR2T33 /// OR2T8 (11738714_s_at) / Fold change /veh OR2T12 /// OR2T33 /// OR2T8 (11738714_s_at) / RFU VCAN (11748164_a_at) / Fold change /veh VCAN (11748164_a_at) / RFU JSRP1 (11732532_at) / Fold change /veh JSRP1 (11732532_at) / RFU KRTAP10-11 (11738290_x_at) / Fold change /veh KRTAP10-11 (11738290_x_at) / RFU MYO3A (11730013_a_at) / Fold change /veh MYO3A (11730013_a_at) / RFU EBF3 (11725865_a_at) / Fold change /veh EBF3 (11725865_a_at) / RFU CAMK2N1 (11719241_x_at) / Fold change /veh CAMK2N1 (11719241_x_at) / RFU C5orf56 (11738088_a_at) / Fold change /veh C5orf56 (11738088_a_at) / RFU OLFML3 (11715873_a_at) / Fold change /veh OLFML3 (11715873_a_at) / RFU LOC100653217 /// NTM (11731650_a_at) / Fold change /veh LOC100653217 /// NTM (11731650_a_at) / RFU MAPK11 (11762145_a_at) / Fold change /veh MAPK11 (11762145_a_at) / RFU FIZ1 (11724087_x_at) / Fold change /veh FIZ1 (11724087_x_at) / RFU OASL (11726364_x_at) / Fold change /veh OASL (11726364_x_at) / RFU SOX15 (11748057_x_at) / Fold change /veh SOX15 (11748057_x_at) / RFU CD79A (11719716_a_at) / Fold change /veh CD79A (11719716_a_at) / RFU HIST1H1D (11736915_at) / Fold change /veh HIST1H1D (11736915_at) / RFU CASKIN2 (11723855_a_at) / Fold change /veh CASKIN2 (11723855_a_at) / RFU LOC730098 (11760151_x_at) / Fold change /veh LOC730098 (11760151_x_at) / RFU OR4N2 (11742367_at) / Fold change /veh OR4N2 (11742367_at) / RFU PRRT2 (11749266_a_at) / Fold change /veh PRRT2 (11749266_a_at) / RFU SNX32 (11753110_a_at) / Fold change /veh SNX32 (11753110_a_at) / RFU CDHR5 (11726645_a_at) / Fold change /veh CDHR5 (11726645_a_at) / RFU RCAN1 (11760418_a_at) / Fold change /veh RCAN1 (11760418_a_at) / RFU FAM167A (11723789_a_at) / Fold change /veh FAM167A (11723789_a_at) / RFU FAM26E (11764081_at) / Fold change /veh FAM26E (11764081_at) / RFU ISYNA1 (11749810_s_at) / Fold change /veh ISYNA1 (11749810_s_at) / RFU ACY1 (11761880_at) / Fold change /veh ACY1 (11761880_at) / RFU 11764098_at / Fold change /veh 11764098_at / RFU SAMD14 (11745864_x_at) / Fold change /veh SAMD14 (11745864_x_at) / RFU NPB (11741838_a_at) / Fold change /veh NPB (11741838_a_at) / RFU TMPRSS6 (11731388_a_at) / Fold change /veh TMPRSS6 (11731388_a_at) / RFU KRTAP10-2 (11738614_at) / Fold change /veh KRTAP10-2 (11738614_at) / RFU ARHGAP8 /// PRR5-ARHGAP8 (11727945_x_at) / Fold change /veh ARHGAP8 /// PRR5-ARHGAP8 (11727945_x_at) / RFU KRTAP5-7 /// NADSYN1 (11734609_at) / Fold change /veh KRTAP5-7 /// NADSYN1 (11734609_at) / RFU RASL12 (11751679_a_at) / Fold change /veh RASL12 (11751679_a_at) / RFU CDKN2B (11736163_a_at) / Fold change /veh CDKN2B (11736163_a_at) / RFU PRF1 (11729649_at) / Fold change /veh PRF1 (11729649_at) / RFU, ZNF638 /// ZNF638-IT1 / Fold change vs veh, ZNF638 /// ZNF638-IT1 / RFU, PANK3 / Fold change vs veh, PANK3 / RFU, SH3YL1 / Fold change vs veh, SH3YL1 / RFU, ZEB2 / Fold change vs veh, ZEB2 / RFU, NRIP1 / Fold change vs veh, NRIP1 / RFU, PTTG1IP / Fold change vs veh, PTTG1IP / RFU, CAPN2 / Fold change vs veh, CAPN2 / RFU, MED14 / Fold change vs veh, MED14 / RFU, SNORA58 / Fold change vs veh, SNORA58 / RFU, C1orf63 / Fold change vs veh, C1orf63 / RFU, LRRFIP1 / Fold change vs veh, LRRFIP1 / RFU, NDUFAF7 / Fold change vs veh, NDUFAF7 / RFU, SLC12A2 / Fold change vs veh, SLC12A2 / RFU, IBTK / Fold change vs veh, IBTK / RFU, ESF1 / Fold change vs veh, ESF1 / Fold change vs veh, TMEM50B / RFU, TAOK1 / Fold change vs veh, TAOK1 / RFU, ACBD3 / Fold change vs veh, ACBD3 / RFU, TMA16 / Fold change vs veh, TMA16 / RFU, RWDD3 / Fold change vs veh, RWDD3 / RFU, BCAT1 / Fold change vs veh, BCAT1 / RFU, EDEM3 / Fold change vs veh, EDEM3 / RFU, TMEM33 / Fold change vs veh, TMEM33 / RFU, WDR75 / Fold change vs veh, WDR75 / RFU, AHCTF1 / Fold change vs veh, AHCTF1 / RFU, TFRC / Fold change vs veh, TFRC / RFU, ZDHHC17 / Fold change vs veh, ZDHHC17 / RFU, NOM1 / Fold change vs veh, NOM1 / RFU, ARL8B / Fold change vs veh, ARL8B / RFU, ZBTB11 / Fold change vs veh, ZBTB11 / RFU, TAMM41 / Fold change vs veh, TAMM41 / RFU, KIAA1704 /// LOC100996395 / Fold change vs veh, KIAA1704 /// LOC100996395 / RFU, ING1 / Fold change vs veh, ING1 / RFU, TRMT61B / Fold change vs veh, TRMT61B / RFU, FUBP3 / Fold change vs veh, FUBP3 / RFU, TP53 / Fold change vs veh, TP53 / RFU, TNKS2 / Fold change vs veh, TNKS2 / RFU, ZFP14 / Fold change vs veh, ZFP14 / RFU, ACTR2 / Fold change vs veh, ACTR2 / RFU, PPP3R1 / Fold change vs veh, PPP3R1 / RFU, PIK3R1 / Fold change vs veh, PIK3R1 / RFU, HNRNPA1 / Fold change vs veh, HNRNPA1 / RFU, RNF170 / Fold change vs veh, RNF170 / RFU, ZNF28 / Fold change vs veh, ZNF28 / RFU, RNGTT / Fold change vs veh, RNGTT / RFU, OGT / Fold change vs veh, OGT / RFU, BRD1 / Fold change vs veh, BRD1 / RFU, MARS / Fold change vs veh, MARS / RFU, ZNF655 / Fold change vs veh, ZNF655 / RFU, FAHD1 / Fold change vs veh, FAHD1 / RFU, BDP1 / Fold change vs veh, BDP1 / RFU, LRRCC1 / Fold change vs veh, LRRCC1 / RFU, ARID1A / Fold change vs veh, ARID1A / RFU, ZNF146 / Fold change vs veh, ZNF146 / RFU, ZNF330 / Fold change vs veh, ZNF330 / RFU, GPN3 / Fold change vs veh, GPN3 / RFU, C9orf123 / Fold change vs veh, C9orf123 / RFU, N4BP2L2 / Fold change vs veh, N4BP2L2 / RFU, ARFIP1 / Fold change vs veh, ARFIP1 / RFU, FAM179B / Fold change vs veh, FAM179B / RFU, BCL10 / Fold change vs veh, BCL10 / RFU, UHRF1BP1L / Fold change vs veh, UHRF1BP1L / RFU, BET1 / Fold change vs veh, BET1 / RFU, CNOT2 / Fold change vs veh, CNOT2 / RFU, ZNF268 / Fold change vs veh, ZNF268 / Fold change vs veh, ZNF507 / RFU, DGCR2 / Fold change vs veh, DGCR2 / RFU, WDSUB1 / Fold change vs veh, WDSUB1 / Fold change vs veh, HSP90B1 /// MIR3652 / RFU, ADSS / Fold change vs veh, ADSS / RFU, GK / Fold change vs veh, GK / RFU, ZNF148 / Fold change vs veh, ZNF148 / RFU, TAF9 / Fold change vs veh, TAF9 / RFU, SLC1A5 / Fold change vs veh, SLC1A5 / RFU, SLMO2 / Fold change vs veh, SLMO2 / RFU, ABCC4 / Fold change vs veh, ABCC4 / RFU, LOC101060439 /// RAP1B / Fold change vs veh, LOC101060439 /// RAP1B / RFU, RFX7 / Fold change vs veh, RFX7 / RFU, GTPBP10 / Fold change vs veh, GTPBP10 / RFU, CNEP1R1 / Fold change vs veh, CNEP1R1 / RFU, BIVM-ERCC5 /// ERCC5 / Fold change vs veh, BIVM-ERCC5 /// ERCC5 / RFU, ILF3 / Fold change vs veh, ILF3 / RFU 11762660_at / Fold change /veh 11762660_at / RFU VCAN (11757783_s_at) / Fold change /veh VCAN (11757783_s_at) / RFU DDX43 (11728927_at) / Fold change /veh DDX43 (11728927_at) / RFU KRT8 (11758188_x_at) / Fold change /veh KRT8 (11758188_x_at) / RFU NKD1 (11759106_at) / Fold change /veh NKD1 (11759106_at) / RFU SRD5A1 (11742802_a_at) / Fold change /veh SRD5A1 (11742802_a_at) / RFU TPSAB1 /// TPSB2 (11721975_s_at) / Fold change /veh TPSAB1 /// TPSB2 (11721975_s_at) / RFU GSTM3 (11746129_a_at) / Fold change /veh GSTM3 (11746129_a_at) / RFU IL23R (11737362_x_at) / Fold change /veh IL23R (11737362_x_at) / RFU TMEM51 (11727254_a_at) / Fold change /veh TMEM51 (11727254_a_at) / RFU PIWIL2 (11732686_x_at) / Fold change /veh PIWIL2 (11732686_x_at) / RFU ORM1 (11744905_x_at) / Fold change /veh ORM1 (11744905_x_at) / RFU CCDC152 (11743942_at) / Fold change /veh CCDC152 (11743942_at) / RFU ECM1 (11717891_a_at) / Fold change /veh ECM1 (11717891_a_at) / RFU IL23R (11748794_a_at) / Fold change /veh IL23R (11748794_a_at) / RFU TNFAIP8L3 (11732012_x_at) / Fold change /veh TNFAIP8L3 (11732012_x_at) / RFU MBOAT4 (11741988_at) / Fold change /veh MBOAT4 (11741988_at) / RFU 11764193_at / Fold change /veh 11764193_at / RFU TMEM53 (11763286_at) / Fold change /veh TMEM53 (11763286_at) / RFU MAGEB2 (11727129_at) / Fold change /veh MAGEB2 (11727129_at) / RFU TMEM200A (11744735_a_at) / Fold change /veh TMEM200A (11744735_a_at) / RFU CCDC152 (11751479_a_at) / Fold change /veh CCDC152 (11751479_a_at) / RFU FAM211A (11726209_a_at) / Fold change /veh FAM211A (11726209_a_at) / RFU RGS16 (11746705_a_at) / Fold change /veh RGS16 (11746705_a_at) / RFU VCAN (11755009_s_at) / Fold change /veh VCAN (11755009_s_at) / RFU RHOB (11743442_s_at) / Fold change /veh RHOB (11743442_s_at) / RFU RGS16 (11720943_a_at) / Fold change /veh RGS16 (11720943_a_at) / RFU RGS16 (11720944_at) / Fold change /veh RGS16 (11720944_at) / RFU, VPS4B / Fold change vs veh, VPS4B / RFU, CREB1 / Fold change vs veh, CREB1 / RFU, DNAJC13 / Fold change vs veh, DNAJC13 / RFU, GNAQ / Fold change vs veh, GNAQ / RFU, CDK5R1 / Fold change vs veh, CDK5R1 / RFU, ZRANB3 / Fold change vs veh, ZRANB3 / RFU, CUL4A / Fold change vs veh, CUL4A / RFU, CCNY / Fold change vs veh, CCNY / RFU, UFL1 / Fold change vs veh, UFL1 / RFU, COG3 / Fold change vs veh, COG3 / RFU, DIAPH2 / Fold change vs veh, DIAPH2 / RFU, SKA2 / Fold change vs veh, SKA2 / RFU, AFF3 / Fold change vs veh, AFF3 / RFU, LMF1 / Fold change vs veh, LMF1 / RFU, IPO11 / Fold change vs veh, IPO11 / RFU, DFFB / Fold change vs veh, DFFB / RFU, FOXP1 / Fold change vs veh, FOXP1 / RFU, CARD8 / Fold change vs veh, CARD8 / RFU, STRN3 / Fold change vs veh, STRN3 / RFU, ADK / Fold change vs veh, ADK / RFU, RASSF2 / Fold change vs veh, RASSF2 / RFU, WIPF1 / Fold change vs veh, WIPF1 / RFU, LARP1B / Fold change vs veh, LARP1B / RFU, RASA1 / Fold change vs veh, RASA1 / RFU, RB1 / Fold change vs veh, RB1 / RFU, PPFIA1 / Fold change vs veh, PPFIA1 / RFU, MAT2A / Fold change vs veh, MAT2A / RFU, CCT5 / Fold change vs veh, CCT5 / RFU, WDR92 / Fold change vs veh, WDR92 / RFU, CUX1 / Fold change vs veh, CUX1 / RFU, TTC7A / Fold change vs veh, TTC7A / RFU, TMEM135 / Fold change vs veh, TMEM135 / RFU, DEPTOR / Fold change vs veh, DEPTOR / RFU, CPM / Fold change vs veh, CPM / RFU, DNAJB6 / Fold change vs veh, DNAJB6 / RFU, CACNA2D3 / Fold change vs veh, CACNA2D3 / RFU, DTX4 / Fold change vs veh, DTX4 / RFU, TFCP2 / Fold change vs veh, TFCP2 / RFU, GMCL1 /// GMCL1P1 / Fold change vs veh, GMCL1 /// GMCL1P1 / RFU, AEBP2 / Fold change vs veh, AEBP2 / RFU, SNHG1 /// SNORD22 /// SNORD25 /// SNORD26 /// SNORD27 /// SNORD28 /// SNORD29 /// SNORD31 / Fold change vs veh, SNHG1 /// SNORD22 /// SNORD25 /// SNORD26 /// SNORD27 /// SNORD28 /// SNORD29 /// SNORD31 / Fold change (Aza/veh), C12orf56 (ProbeSet 11735607_a_at) / Fold change (ACY-1035/veh), C12orf56 (ProbeSet 11735607_a_at) / Fold change (Aza/veh), FGFR1OP (ProbeSet 11751329_s_at) / Fold change (ACY-1035/veh), FGFR1OP (ProbeSet 11751329_s_at) / Fold change (Aza/veh), VPS36 (ProbeSet 11739960_a_at) / Fold change (ACY-1035/veh), VPS36 (ProbeSet 11739960_a_at) / RFU SYPL1 (11715823_x_at) / Fold change /veh SYPL1 (11715823_x_at) / RFU IGFBP7 (11715501_s_at) / Fold change /veh IGFBP7 (11715501_s_at) / RFU REEP3 (11722064_at) / Fold change /veh REEP3 (11722064_at) / RFU IGLL1 (11728026_x_at) / Fold change /veh IGLL1 (11728026_x_at): dose or concentration left out as unconfirmed. Conditions: ProbeSet 11720270_a_at; LIST B.

Molecules are shown by their SMILES.

Consider `Nc1ncn([C@@H]2O[C@H](CO)[C@@H](O)[C@H]2O)c(=O)n1` [azacitidine], for which the “Fold change vs veh, IBTK” value turned out to be 0.96.
